Literature values in patent publication US8888736B2, “High shear application in medical therapy” (H R D Corporation, priority 2010, dated 2014).
≈ marks a conversion by molar mass, not a printed value. Read-outs that look alike come from different tables or passages of the source. Blank lines part the entries; values can stand above or below the molecule they belong to.

How the values were obtained:
[1] = believed to average around

Compound: C=C [ethylene]
solubility (water at 20° C.): 0.015 g/100 ml

Compound: S [hydrogen sulfide]
toxic level in the body [1]: 300-350 ppm

solubility (water at 20° C.): 0.0078 mol/L (≈ 503 µg/mL)
Compound: CCCl [chloroethane]

Compound: ClC=C(Cl)Cl [trichloroethylene]
solubility (water at 20° C.): 0.1 g/100 ml

solubility (in water at 21° C.): 537 ppm
Compound: C1CC1 [cyclopropane]

solubility (in water at 21° C.): 0.678 % by weight
Compound: CCCl [ethylchloride]

Compound: C=COC=C [divinyl ether]
solubility (water at 37° C.): 0.0749 mol/L (≈ 5250 µg/mL)
